For three molecules, pest or weed control results are on record in patent publication US20220104492A1, “PYRIDAZINIUM COMPOUNDS FOR USE IN A METHOD OF CONTROLLING UNWANTED PLANT GROWTH” (SYNGENTA CROP PROTECTION AG, priority 2019, published 2022).

Each structure is given as a SMILES string.

Common to all, as to experiment: Post-emergence efficacy (glasshouse, spray application)
What all share (format): in vivo

The subject of assay [1] is Chenopodium album (CHEAL). As to conditions: 312 h, Application rate 500 g/Ha, evaluated after 13 days, 100=total damage to plant, 0=no damage to plant, read-out: Control of weed species after post-emergence application, CHEAL.
Assay [2] has as its system Lolium perenne (LOLPE). The conditions noted are these: 312 h, Application rate 500 g/Ha, evaluated after 13 days, 100=total damage to plant, 0=no damage to plant, read-out: Control of weed species after post-emergence application, LOLPE.
Assay [3] has as its system Ipomoea hederacea (IPOHE). As to conditions: 312 h, Application rate 500 g/Ha, evaluated after 13 days, 100=total damage to plant, 0=no damage to plant, read-out: Control of weed species after post-emergence application, IPOHE.
Assay [4] has as its system Amaranthus palmeri (AMAPA). As to conditions: 312 h, Application rate 500 g/Ha, evaluated after 13 days, 100=total damage to plant, 0=no damage to plant, read-out: Control of weed species after post-emergence application, AMAPA.
The subject of assay [5] is Echinochloa crus-galli (ECHCG). As to conditions: 312 h, Application rate 500 g/Ha, evaluated after 13 days, 100=total damage to plant, 0=no damage to plant, read-out: Control of weed species after post-emergence application, ECHCG.
Assay [6] relates to Eleusine indica (ELEIN). As to conditions: 312 h, Application rate 500 g/Ha, evaluated after 13 days, 100=total damage to plant, 0=no damage to plant, read-out: Control of weed species after post-emergence application, ELEIN.
Assay [7] has as its system Euphorbia heterophylla (EPHHL). As to conditions: 312 h, Application rate 500 g/Ha, evaluated after 13 days, 100=total damage to plant, 0=no damage to plant, read-out: Control of weed species after post-emergence application, EPHHL.
Assay [8] deals with Setaria faberi (SETFA). As to conditions: 312 h, Application rate 500 g/Ha, evaluated after 13 days, 100=total damage to plant, 0=no damage to plant, read-out: Control of weed species after post-emergence application, SETFA.
Assay [9] deals with Digitaria sanguinalis (DIGSA). As to conditions: 312 h, Application rate 500 g/Ha, evaluated after 13 days, 100=total damage to plant, 0=no damage to plant, read-out: Control of weed species after post-emergence application, DIGSA.

With `CC(C)(NC(=O)C[n+]1ccc(-c2ncccn2)cn1)C(=O)O` [Compound A37], the pest or weed control at 500 g/ha in assay [1] worked out at 50%; in [2], 70%; in assay [3], 40%; in assay [4] it was 100%; in assay [5] it was 40%; in [6], 70%. In addition, the values for the pest or weed control at 500 g/ha in [7], in assay [8] and in assay [9] were 80%, 80% and 70%, respectively.

In the case of `O=C(CC[n+]1ccc(-c2ncccn2)cn1)NC1(C(=O)O)CC1` [Compound A38], the pest or weed control at 500 g/ha in [1] turned out to be 100%; in assay [2], 90%; in assay [3] it was 10%; in assay [4], 100%; in assay [5], 50%; in assay [6], 100%. The pest or weed control at 500 g/ha in assay [7] was 80%; in assay [8], 100%; in assay [9] it was 90%.

`O=C(O)COC[n+]1ccc(-c2ncccn2)cn1` [Compound A39]: the pest or weed control at 500 g/ha in [1] turned out to be 80%; in assay [2], 70%; in assay [3], 80%; in assay [4], 100%; in assay [5], 80%; in assay [6] it was 60%. In addition, the pest or weed control at 500 g/ha was 90% in assay [7], 70% in assay [8] and 100% in assay [9].
